Reference: patent publication US8598202B2, “Aryl-hydroxyethylamino-pyrimidines and triazines as modulators of fatty acid amide hydrolase” (Janssen Pharmaceutica NV, priority 2008, dated 2013)
Counter-ions that a name gives are not always drawn.

Tests used:
[1] = target: T1, FAAH (Homo sapiens, UniProt O00519); assay: Assay Method 1: FAAH assay, 3H-anandamide hydrolysis in homogenate of T84 cells or SK-N-MC cells transfected with human FAAH
T1 sequence (O00519 1-579): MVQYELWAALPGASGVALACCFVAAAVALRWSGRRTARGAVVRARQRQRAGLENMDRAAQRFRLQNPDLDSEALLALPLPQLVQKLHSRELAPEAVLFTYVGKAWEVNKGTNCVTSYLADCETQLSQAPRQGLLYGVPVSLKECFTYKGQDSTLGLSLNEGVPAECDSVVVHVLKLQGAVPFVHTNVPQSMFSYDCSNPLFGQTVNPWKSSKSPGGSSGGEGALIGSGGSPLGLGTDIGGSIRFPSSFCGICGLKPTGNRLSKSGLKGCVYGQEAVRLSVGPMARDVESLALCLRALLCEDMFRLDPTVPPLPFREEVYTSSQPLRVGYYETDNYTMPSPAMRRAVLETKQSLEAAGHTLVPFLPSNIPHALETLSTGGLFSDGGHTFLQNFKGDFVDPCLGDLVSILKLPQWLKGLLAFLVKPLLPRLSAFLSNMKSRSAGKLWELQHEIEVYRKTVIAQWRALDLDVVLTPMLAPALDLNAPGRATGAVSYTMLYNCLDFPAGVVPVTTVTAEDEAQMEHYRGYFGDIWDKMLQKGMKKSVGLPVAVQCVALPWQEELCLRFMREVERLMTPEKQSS

[2] = target: T2, Rat FAAH-1 (Rattus norvegicus, UniProt P97612); assay: Assay Method 2: rat FAAH-1 assay, 3H-anandamide hydrolysis in homogenate of SK-N-MC cells transfected with rat FAAH
T2 sequence (P97612 1-579): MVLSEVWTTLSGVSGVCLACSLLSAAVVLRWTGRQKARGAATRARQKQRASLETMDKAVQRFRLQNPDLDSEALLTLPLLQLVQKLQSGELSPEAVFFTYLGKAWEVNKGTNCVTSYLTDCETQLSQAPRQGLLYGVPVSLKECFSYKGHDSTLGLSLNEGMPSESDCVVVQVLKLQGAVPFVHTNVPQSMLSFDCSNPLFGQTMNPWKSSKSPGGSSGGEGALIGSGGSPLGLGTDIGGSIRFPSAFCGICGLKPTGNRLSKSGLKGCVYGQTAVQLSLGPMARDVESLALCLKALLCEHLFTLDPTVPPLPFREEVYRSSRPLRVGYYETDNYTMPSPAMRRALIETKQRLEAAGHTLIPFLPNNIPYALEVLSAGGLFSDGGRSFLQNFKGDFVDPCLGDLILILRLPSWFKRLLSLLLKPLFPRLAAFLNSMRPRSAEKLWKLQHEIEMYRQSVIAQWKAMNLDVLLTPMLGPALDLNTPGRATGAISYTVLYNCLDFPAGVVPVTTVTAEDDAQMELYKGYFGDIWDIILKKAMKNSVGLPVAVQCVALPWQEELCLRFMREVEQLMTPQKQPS
Protocol: The assay mixture consisted of 50 μL of the cell homogenate, 10 μL of the test compound, and 40 μL of anandamide [1-^3H-ethanolamine] (^3H-AEA, Perkin-Elmer, 10.3 Ci/mmol), which was added last, for a final tracer concentration of 80 nM. The reaction mixture was incubated at rt for 1 h. During the incubation, 96-well Multiscreen filter plates (catalog number MAFCNOB50; Millipore, Bedford, Mass., USA) were loaded with 25 μL of activated charcoal (Multiscreen column loader, catalog number MACL09625, Millipore) and washed once with 100 μL of MeOH. […] After the 1 h incubation, 60 μL of the reaction mixture were transferred to the charcoal plates, which were then assembled on top of the DYNEX plates using Centrifuge Alignment Frames (catalog number MACF09604, Millipore). The unbound labeled ethanolamine was centrifuged through to the bottom plate (5 min at 2000 rpm), which was preloaded with the scintillant, as described above. The plates were sealed and left at rt for 1 h before counting on a Hewlett Packard TopCount.

IC50 [1]	IC50 [2]	SMILES
0.105 µM	1.5 µM	Cc1c(NC[C@H](O)c2ccccc2)ncnc1-c1ccc(C(F)(F)F)c(F)c1 [Example 48, (1R)-2-({6-[3-Fluoro-4-(trifluoromethyl)phenyl]-5-methylpyrimidin-4-yl}amino)-1-phenylethanol trifluoroacetic acid salt]
0.002 µM	0.009 µM	O[C@@H](CNc1cc(-c2cc(F)c(OC(F)F)c(F)c2)ncn1)c1ccccc1 [Example 49, (1R)-2-({6-[4-(Difluoromethoxy)-3,5-difluorophenyl]pyrimidin-4-yl}amino)-1-phenylethanol trifluoroacetic acid salt]
0.092 µM	0.985 µM	CC(C)(C#N)c1ccc(-c2cc(NC[C@H](O)c3ccccc3)ncn2)cc1 [Example 50, 2-[4-(6-{[(2R)-2-Hydroxy-2-phenylethyl]amino}pyrimidin-4-yl)phenyl]-2-methylpropanenitrile trifluoroacetic acid salt]
0.765 µM	> 10 µM	O[C@@H](CNc1cc(-c2ccc3cc[nH]c3c2)ncn1)c1ccccc1 [Example 53, (1R)-2-{[6-(1H-Indol-6-yl)pyrimidin-4-yl]amino}-1-phenylethanol trifluoroacetic acid salt]
0.277 µM	0.443 µM	O[C@@H](CNc1cc(-c2cc(F)c(F)c(F)c2)ncn1)c1ccccc1 [Example 54, (1R)-1-Phenyl-2-{[6-(3,4,5-trifluorophenyl)pyrimidin-4-yl]amino}ethanol trifluoroacetic acid salt]
0.02 µM	1.7 µM	Cn1c(-c2cc(NC[C@H](O)c3ccccc3)ncn2)cc2ccccc21 [Example 55, (1R)-2-{[6-(1-Methyl-1H-indol-2-yl)pyrimidin-4-yl]amino}-1-phenylethanol trifluoroacetic acid salt]
0.002 µM	0.04 µM	Cc1ccc2sc(-c3cc(NC[C@H](O)c4ccccc4)ncn3)cc2c1 [Example 56, (1R)-2-{[6-(5-Methyl-1-benzothiophen-2-yl)pyrimidin-4-yl]amino}-1-phenylethanol]
0.029 µM	0.535 µM	O=C(c1ccccc1)c1ccc(-c2cc(NC[C@H](O)c3ccccc3)ncn2)cc1 [Example 57, [4-(6-{[(2R)-2-Hydroxy-2-phenylethyl]amino}pyrimidin-4-yl)phenyl](phenyl)methanone trifluoroacetic acid salt]
0.104 µM	0.47 µM	O[C@@H](CNc1cc(-c2cc(F)cc(F)c2)ncn1)c1ccccc1 [Example 58, (1R)-2-{[6-(3,5-Difluorophenyl)pyrimidin-4-yl]amino}-1-phenylethanol trifluoroacetic acid salt]
0.307 µM	1 µM	O[C@@H](CNc1cc(-c2ccc(F)c(F)c2)ncn1)c1ccccc1 [Example 59, (1R)-2-{[6-(3,4-Difluorophenyl)pyrimidin-4-yl]amino}-1-phenylethanol trifluoroacetic acid salt]
0.006 µM	0.028 µM	CSc1nc(NC[C@H](O)c2ccccc2)cc(-c2ccc(C(F)(F)F)c(Cl)c2)n1 [Example 60, (1R)-2-({6-[3-Chloro-4-(trifluoromethyl)phenyl]-2-(methylsulfanyl)pyrimidin-4-yl}amino)-1-phenylethanol trifluoroacetic acid salt]
0.006 µM	0.028 µM	Nc1nc(NC[C@H](O)c2ccccc2)cc(-c2ccc(C(F)(F)F)c(Cl)c2)n1 [Example 61, (1R)-2-({2-Amino-6-[3-chloro-4-(trifluoromethyl)phenyl]pyrimidin-4-yl}amino)-1-phenylethanol trifluoroacetic acid salt]
0.002 µM	0.003 µM	O[C@@H](CNc1cc(-c2ccc(C(F)(F)F)c(Cl)c2)ncn1)c1ccc(F)cc1 [Example 62, (1R)-2-({6-[3-Chloro-4-(trifluoromethyl)phenyl]ivrimidin-4-yl}amino)-1-(4-fluorophenyl)ethanol]
0.45 µM	2 µM	COc1ccc(-c2cc(NC[C@H](O)c3ccccc3)ncn2)cn1 [Example 63, (1R)-2-{[6-(6-Methoxypyridin-3-yl)pyrimidin-4-yl]amino}-1-phenylethanol]
0.05 µM	0.22 µM	CCOc1ccc(-c2cc(NC[C@H](O)c3ccccc3)ncn2)cn1 [Example 64, (1R)-2-{[6-(6-Ethoxypyridin-3-yl)pyrimidin-4-yl]amino}-1-phenylethanol]
0.038 µM	6 µM	CN(C)c1ccc(-c2cc(NC[C@H](O)c3ccccc3)ncn2)cc1 [Example 65, (1R)-2-({6-[4-(Dimethylamino)phenyl]pyrimidin-4-yl}amino)-1-phenylethanol]
0.073 µM	0.14 µM	CS(=O)(=O)c1ccc(-c2cc(NC[C@H](O)c3ccccc3)ncn2)cc1 [Example 66, (1R)-2-({6-[4-(Methylsulfonyl)phenyl]pyrimidin-4-yl}amino)-1-phenylethanol]
0.9 µM	> 10 µM	O[C@@H](CNc1cc(-c2cnc(N3CCOCC3)nc2)ncn1)c1ccccc1 [Example 69, (1R)-2-[(2′-Morpholin-4-yl-4,5′-bipyrimidin-6-yl)amino]-1-phenylethanol]
0.8 µM	> 10 µM	O[C@@H](CNc1cc(-c2ccc(N3CCOCC3)nc2)ncn1)c1ccccc1 [Example 70, (1R)-2-{[6-(6-Morpholin-4-ylpyridin-3-yl)pyrimidin-4-yl]amino}-1-Phenylethanol]
0.014 µM	0.076 µM	COc1ccc(-c2cc(NC[C@H](O)c3ccccc3)ncn2)cc1F [Example 71, (1R)-2-{[6-(3-Fluoro-4-methoxyphenyl)pyrimidin-4-yl]amino}-1-pPhenylethanol]
0.02 µM	0.04 µM	Cc1nc(NC[C@H](O)c2ccccc2)cc(-c2ccc(C(F)(F)F)c(Cl)c2)n1 [Example 73, (1R)-2-({6-[3-Chloro-4-(trifluoromethyl)phenyl]-2-methylpyrimidin-4-yl}amino)-1-phenylethanol]
0.014 µM	0.126 µM	CN(C)S(=O)(=O)c1ccc(-c2cc(NC[C@H](O)c3ccccc3)ncn2)cc1 [Example 76, 4-(6-{[(2R)-2-Hydroxy-2-phenylethyl]amino}pyrimidin-4-yl)-N,N-dimethylbenzenesulfonamide]
1 µM	2.2 µM	N#Cc1ccc(-c2cc(NC[C@H](O)c3ccccc3)ncn2)cn1 [Example 77, 5-(6-{[(2R)-2-Hydroxy-2-phenylethyl]amino}pyrimidin-4-yl)pyridine-2-carbonitrile]
0.633 µM	> 10 µM	CN(C)c1ccc(-c2cc(NC[C@H](O)c3ccccc3)ncn2)cn1 [Example 78, (1R)-2-({6-[6-(Dimethylamino)pyridin-3-yl]pyrimidin-4-yl}amino)-1-phenylethanol]
0.542 µM	0.53 µM	O=S(=O)(c1ccc(-c2cc(NC[C@H](O)c3ccccc3)ncn2)cc1)N1CCCCC1 [Example 79, (1R)-1-Phenyl-2-({6-[4-(piperidin-1-ylsulfonyl)phenyl]pyrimidin-4-yl}amino)ethanol]
0.068 µM	0.665 µM	O=S(=O)(c1ccc(-c2cc(NC[C@H](O)c3ccccc3)ncn2)cc1)N1CCCC1 [Example 80, (1R)-1-Phenyl-2-({6-[4-(Pyrrolidin-1-ylsulfonyl)phenyl]pyrimidin-4-yl}amino)ethanol]
0.11 µM	0.492 µM	NS(=O)(=O)c1ccc(-c2cc(NC[C@H](O)c3ccccc3)ncn2)cc1 [Example 81, 4-(6-{[(2R)-2-Hydroxy-2-phenylethyl]amino}pyrimidin-4-yl)benzenesulfonamide]
0.21 µM	0.654 µM	O[C@@H](CNc1cc(-c2ccc(F)c(Cl)c2)ncn1)c1ccccc1 [Example 83, (1R)-2-{[6-(3-Chloro-4-fluorophenyl)pyrimidin-4-yl]amino}-1-Phenylethanol trifluoroacetic acid salt]
0.044 µM	0.965 µM	CSc1cccc(-c2cc(NC[C@H](O)c3ccccc3)ncn2)c1 [Example 84, (1R)-2-({6-[3-(Methylsulfanyl)phenyl]pyrimidin-4-yl}amino)-1-phenylethanol trifluoroacetic acid salt]
